Values after ≈ are worked out from the molar mass of the structure shown. Active and inactive are the calls of the source. The rule behind the calls is not given here.
Legend:
P388 = experiment: Cytotoxicity against mouse P388 cells; format: functional, cell-based
MOLT-4 = experiment: Cytotoxicity against human MOLT4 cells; format: functional, cell-based
[1] = Cytotoxicity against mouse LL/2 cells; format: functional, cell-based, Lewis lung carcinoma
WEHI-164 = experiment: Cytotoxicity against mouse WEHI164 cells; format: functional, cell-based
Jurkat = experiment: Cytotoxicity against human Jurkat cells; format: functional, cell-based

## CC[C@@](C)(O)C(=O)N[C@@H]1CCCN1C(=O)[C@H]1[C@H](c2ccccc2)[C@]2(c3ccc(OC)cc3)Oc3cc(OC)cc(OC)c3[C@@]1(O)[C@H]2OC(C)=O
P388
  Activity: inactive
MOLT-4
  Activity: inactive

## CC[C@@](C)(O)C(=O)N[C@@H]1CCCN1C(=O)[C@@H]1[C@@H](c2ccccc2)[C@]2(c3ccc(OC)cc3)Oc3cc(OC)cc(OC)c3[C@@]1(O)[C@H]2OC(C)=O
P388
  Activity: inactive
MOLT-4
  Activity: inactive

## COc1ccc([C@@]23Oc4cc(OC)cc(OC)c4[C@]2(O)[C@H](O)C[C@H]3c2ccccc2)cc1 [ROCAGLAOL]
P388; Mus musculus, P388, read-out: IC50
  IC50: < 0.01 µg/mL
[1]; Mus musculus, Lewis lung carcinoma, read-out: IC50
  IC50: 0.034 µg/mL (≈ 0.0783 µM)
WEHI-164
  IC50: 0.023 µg/mL (≈ 0.0529 µM)

## CC[C@@](C)(O)C(=O)N[C@@H]1CCCN1C(=O)[C@@H]1[C@@H](c2ccccc2)[C@@]2(O)c3c(OC)cc(OC)cc3O[C@]1(c1ccc(OC)cc1)[C@H]2OC(C)=O
P388
  Activity: inactive
MOLT-4
  Activity: inactive

## COc1cc(OC)c2c(c1)O[C@@]1(c3ccc(OC)c(O[C@@H]4O[C@H](C)[C@@H](O)[C@H](OC)[C@@H]4OC(C)=O)c3)[C@H](c3ccccc3)C[C@@H](O)[C@@]21O
Jurkat
  IC50: 0.0022 µg/mL (≈ 0.00337 µM)
P388; p388
  IC50: 0.036 µg/mL (≈ 0.0552 µM)
[1]; lewis lung carcinoma
  IC50: 0.0042 µg/mL (≈ 0.00643 µM)

## CC[C@@](C)(O)C(=O)N[C@@H]1CCCN1C(=O)[C@@H]1[C@@H](c2ccccc2)[C@@]2(O)c3c(OC)cc(OC)cc3O[C@]1(c1ccc(OC)cc1)[C@H]2O
P388
  Activity: inactive
MOLT-4
  Activity: inactive
